# Measurements published in patent publication US8114843B2, “Photoreactive regulator of protein function and methods of use thereof” (The Regents of the University of California, priority 2005, dated 2012).
# Entries after “also recorded” stand apart in the source; their conditions may differ.
# Columns and labels:
# [1] = biological target: Shaker H4 (Δ6-46, E422C, T449V) (Drosophila melanogaster, UniProt P08510, DEL6-46/E422C/T449V); test: Patch recordings of MAL-AZO-QA-modified Shaker channels in Xenopus oocytes; assay type: cell-based
# Shaker H4 (Δ6-46, E422C, T449V), sequence (P08510 other isoform, or with tags, fused parts or gaps DEL6-46/E422C/T449V): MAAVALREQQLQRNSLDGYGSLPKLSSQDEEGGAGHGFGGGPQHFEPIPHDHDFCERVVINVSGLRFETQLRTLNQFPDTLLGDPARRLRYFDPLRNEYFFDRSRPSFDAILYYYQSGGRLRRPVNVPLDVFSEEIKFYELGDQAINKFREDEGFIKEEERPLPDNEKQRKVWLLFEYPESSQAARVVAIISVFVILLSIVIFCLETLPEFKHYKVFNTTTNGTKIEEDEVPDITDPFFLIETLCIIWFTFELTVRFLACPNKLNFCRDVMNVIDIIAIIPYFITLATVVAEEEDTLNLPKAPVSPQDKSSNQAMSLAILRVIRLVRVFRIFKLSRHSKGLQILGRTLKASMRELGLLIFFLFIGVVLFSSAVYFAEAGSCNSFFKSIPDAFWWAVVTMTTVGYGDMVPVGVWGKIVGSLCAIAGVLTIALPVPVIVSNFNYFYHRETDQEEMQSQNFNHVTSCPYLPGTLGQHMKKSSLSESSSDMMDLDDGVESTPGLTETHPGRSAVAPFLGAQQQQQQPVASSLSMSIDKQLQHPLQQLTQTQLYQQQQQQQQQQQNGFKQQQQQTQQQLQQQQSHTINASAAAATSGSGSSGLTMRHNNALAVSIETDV
# Method: Xenopus oocytes were injected with […] of mRNA encoding Shaker H4, with the following mutations: Δ6-46, E422C, T449V. […] Devitillenized oocytes were recorded from 2-10 days post-injection using standard patch-clamp methods. For outside-out patches, glass patch pipettes (2-4 MΩ) were filled with a solution containing (in mM) 100 KCl, 10 HEPES, 0.1 CaCl2, 0.5 MgCl2, and 10 EGTA, while the bath contained 10 KCl, 90 NaCl, 10 HEPES, 0.1 CaCl2, 0.5 MgCl2, and 10 EGTA. For inside-out patches, patch pipettes and bath both contained 100 KCl, 10 HEPES, 0.1 CaCl2, 0.5 MgCl2, and 10 EGTA. The pH of all solutions was 7.1. Solid MAL-AZO-QA was dissolved as a concentrated stock solution in DMSO and stored at −20° C. until the day of use. Stocks were diluted into oocyte bath solution to final concentrations of 10 μM or 100 μM. […] Pulse protocols and measurements were performed with pCLAMP software, a DigiData 1200 series interface, and a PC-505 amplifier (Warner Instruments). Samples were taken at 10 kHz and the data was filtered at 1 kHz. Patches were held at −90 mV, pulsed to −100 mV for 60 msec to monitor leak, and pulsed to −20 mV for 30-100 msec at 1 Hz to elicit Shaker currents. The peak of the Shaker currents was measured to minimize the contribution of slow inactivation. Patches with a leak conductance>100 pS were not included in analysis.
# Discrete wavelengths of light (+/−10 nm) were focused on patches through a quartz coverslip with a Fluor 20×, 0.5 NA objective lens (Nikon). Output intensity was measured for wavelengths between 300 and 600 nm. The measured output intensities for wavelengths between 340-600 nm ranged from 0.324e-8 to 6.23e-8 W/cm^2. Differences in light intensities at different wavelengths were taken into account when determining action spectra for channel block and unblock.
# [2] = test system: hippocampal pyramidal neurons transfected with the multiply-mutated Shaker channel; test: Current clamp recordings from cultured hippocampal neurons treated with MAL-AZO-QA; assay type: cell-based, rat
# Method: Primary dissociated hippocampal cultures were prepared from E18-19 Sprague-Dewey rat embryos and grown on glass cover slips in serum-containing media and incubated in 7% CO2 in air at 37° C. Cells were co-transfected with GFP along with the modified Shaker channel described above with additional L366A and V454L mutations. Transfections with Lipofectamine 2000™ were performed at 12-14 DIV. About 10% of the cultured neurons appeared GFP-positive at 2-3 days after transfection. Coverslips containing the neurons were treated at 37° C. for 15 min with 300 μM MAL-AZO-QA in an extracellular recording solution containing (in mM) 135 NaCl, 5 KCl, 1.2 MgCl2, 5 HEPES, 2.5 CaCl2, and 10 glucose at pH 7.4. Patch pipettes (7-10 MΩ) were filled with 10 NaCl, 135 K-gluconate, 10 HEPES, 2 MgCl2, 2 Mg-ATP, and 1 EGTA at pH 7.4. After washout of MAL-AZO-QA with extracellular solution, membrane potential was recorded at room temperature under whole-cell current clamp with an AXOPATCH 200A amplifier (Axon Instruments) and filtered at 10 kHz. Initial recordings were made at resting potential to evaluate the effects of light on spontaneous activity. In experiments where we wanted to quantify the effect of light on firing (e.g. FIG. 4b), cultures were treated with 6-cyano-7-nitroquinoxaline-2,3-dione (CNQX) (1 μM) and bicuculline (10 μM) to silence synaptic activity. Baseline currents were adjusted to set the membrane potential at −50 mV before depolarizing current steps ranging from 0.01-0.03 nA were applied to evoke action potentials. Cells were irradiated with a Lambda-LS illuminator containing a 125 watt xenon arc lamp (Sutter Instruments Company), equipped with narrow bandpass (+/−10 nm) filters through a Fluor 20×, 0.5 NA objective lens (Nikon). Variability among data is expressed as mean+/−SEM, unless noted otherwise.
# [3] = test system: voltage-gated outward current (endogenous K+ channels) in cultured hippocampal neurons; test: Photocontrol of K+ current in cultured hippocampal neurons; assay type: cell-based, rat; conditions: 200 μM, 15 min in the dark
# Method: Hippocampal neurons were prepared from neonatal Sprague-Dawley rats according to standard procedures (Goslin) and grown on poly-L-lysine coated coverslips in MEM supplemented with 5% fetal bovine serum, B27 (Invitrogen), glutamine and serum extender (BD Biosciences). Animal care and experimental protocols were approved by the UC Berkeley Animal Care and Use Committee. Recordings were performed 9-16 days after plating. The Shaker construct also contains an N-terminal deletion (Δ6-46) to minimize fast inactivation.
# (§1) PAL attachment. HEK293 and hippocampal cells were rinsed in extracellular solution containing in mM: 138 NaCl, 1.5 KCl, 1.2 MgCl2, 2.5 CaCl2, 5 HEPES, 10 glucose and incubated at 37° C. in the dark with 200-250 μM PAL for 15 minutes. For slices, AAQ was diluted to 200 μM in aCSF and treatment was performed in the dark at room temperature for 10 minutes.
# Electrophysiological recording. Recordings from HEK293 and hippocampal neurons were made in the whole-cell patch clamp configuration using a PC-501A amplifier (Warner Instruments). Pulse protocols and measurements were carried out with pCLAMP and a Digidata 1322 interface (Axon Instruments). For voltage-clamp experiment, cells were held at −70 mV. Data was recorded at 20 kHz and filtered at 2 kHz. […]
# Solubility = assay type: physicochemical; conditions: for solubility: read-out: solubility limit
# iGluR6 = biological target: T1, iGluR6 (Rattus norvegicus, UniProt P42260); test: Calcium imaging of iGluR6 activity in HEK293 cells; assay type: cell-based
# T1 construct: expressed in transfected cells; host or cells: HEK293
# T1 sequence (P42260 32-908): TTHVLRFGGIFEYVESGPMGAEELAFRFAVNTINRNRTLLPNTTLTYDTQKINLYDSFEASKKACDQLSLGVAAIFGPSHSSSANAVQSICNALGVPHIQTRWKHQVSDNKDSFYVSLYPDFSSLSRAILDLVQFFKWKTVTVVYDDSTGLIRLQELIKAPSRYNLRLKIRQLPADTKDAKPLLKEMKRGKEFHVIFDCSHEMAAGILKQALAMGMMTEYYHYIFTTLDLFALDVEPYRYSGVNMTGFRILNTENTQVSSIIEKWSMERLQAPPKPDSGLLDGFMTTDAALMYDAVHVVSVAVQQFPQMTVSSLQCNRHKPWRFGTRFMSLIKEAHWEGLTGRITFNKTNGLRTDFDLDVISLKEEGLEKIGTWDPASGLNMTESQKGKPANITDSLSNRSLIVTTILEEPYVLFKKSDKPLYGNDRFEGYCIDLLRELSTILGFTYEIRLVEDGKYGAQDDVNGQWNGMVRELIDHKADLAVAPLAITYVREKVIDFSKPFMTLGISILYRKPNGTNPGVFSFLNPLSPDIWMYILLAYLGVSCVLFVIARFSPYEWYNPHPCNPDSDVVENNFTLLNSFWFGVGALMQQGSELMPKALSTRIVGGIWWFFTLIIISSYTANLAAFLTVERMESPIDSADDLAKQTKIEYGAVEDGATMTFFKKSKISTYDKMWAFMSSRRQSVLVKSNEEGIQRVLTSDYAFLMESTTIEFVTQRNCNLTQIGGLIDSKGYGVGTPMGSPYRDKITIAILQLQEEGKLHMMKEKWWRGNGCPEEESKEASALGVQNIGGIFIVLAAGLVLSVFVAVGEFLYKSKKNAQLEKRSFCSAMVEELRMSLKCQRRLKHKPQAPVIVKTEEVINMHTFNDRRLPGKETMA
# Method: HEK293 cells were plated at approximately 3×10^6 cells/ml on poly-L-lysine-coated glass coverslips (Deutsche Spiegelglas, Carolina Biological) and maintained in DMEM with 5% fetal bovine serum, 0.2 mg/ml streptomycin, and 200 U/ml penicillin at 37° C. Cells were transiently transfected with various plasmids using lipofectamine 2000 (Invitrogen). The amount of total transfected iGluR6 DNA and enhanced yellow fluorescent protein (EYFP) fusion DNA per well was fixed at 4 μg and 200 ng, respectively. All recordings were carried out 36 to 48 h after transfection.
# —Cells were washed in PBS and loaded with 5 μM FURA-2-AM (Molecular Probes) for 30 min. […] Fluorescence was monitored on an inverted microscope system (Nikon). […] L-Glutamate was applied as reported in text and figures. The results are representative data from multiple cells in at least two independent cultures.
# hippocampal neurons = test: Live-Dead viability/cytotoxicity assay after MAG exposure; conditions: 12 hours continuous exposure, several concentrations; listed as MAG
# Method: Neuronal survival following 12 hours of continuous exposure to several concentrations of MAG was also examined.
# [4] = Photostationary state determination by NMR; assay type: physicochemical; conditions: MAG-1 conjugated to β-mercaptoethanol, D2O
# Method: Cis-trans photoisomerization of MAG-1 conjugated with β-mercaptoethanol (see Supplementary Methods online) was studied by ^1H NMR, with in situ irradiation of sample using a Polychrom V system monochromator (Till Photonics) containing a 150 W Xenon short arc lamp with an output range of 320-680 nm (29). The half-power bandwidth was 14 nm. A 500 μl aliquot of a 100 μM sample in D2O was prepared in a screw-capped 528-TR-7 NMR tube (Wilmad). A FT-600-UMT fiber optic cable (NA 0.39) (Thorlabs) was coupled at one end to the monochromator using a custom fitting and the other end inserted into the NMR tube a few millimeters above the solution. Each sample was irradiated at the desired wavelength for 30 minutes to reach the photostationary state and 480 scans were required to obtain reasonable signal-to-noise ratios. The output from the fiber optic cable between 340-480 nm ranged from 0.3-9.0 μW/cm^2. Data were processed by isolating aromatic cis-trans ^1H signals and summing their integrals to 1.0. All data were obtained in triplicate and averaged. This analysis will be detailed further in a future paper by Banghart, M. R. et al. (in preparation).
# Purkinje neurons = test: Loose-patch extracellular recording in cerebellar slices; assay type: cell-based, rat; conditions: gabazine added
# Method: Brain Slice Preparation. Parasagittal cerebellar slices were prepared using standard techniques approved by the UCLA Animal Care Committee. […] PAL attachment. […] For cerebellar slices, neuronal cell bodies were visualized using an upright microscope with a 40× water immersion lens and equipped with an infrared-DIC enhancement. Loose-patch extracellular recordings were performed using an Axopatch 200B amplifier (Axon Instruments). Electrophysiological recordings were filtered at 1 KHz and digitized at 2-4 KHz. Pipettes were typically 1.4-2.0 MΩ for recordings from PNs and 3.0-3.5 MΩ for interneurons and filled with aCSF. […] All recordings were performed at room temperature. […] Excitation filters were changed using a lambda 10-2 filter changer (Sutter Instruments) controlled via pCLAMP software.
# wild-type Shaker (E422) = biological target: T2, wild-type Shaker (E422) (Drosophila melanogaster, UniProt P08510, DEL6-46); test: PAL photoswitching, whole-cell patch clamp in HEK293 cells; assay type: cell-based
# T2 construct: expressed in transfected cells; host or cells: HEK293
# T2 sequence (P08510 other isoform, or with tags, fused parts or gaps DEL6-46): as the sequence (P08510 other isoform, or with tags, fused parts or gaps DEL6-46/E422C/T449V) above, with C381E, V408T counted along it
# Method: Cell culture and transfection. HEK293 cells were grown in DMEM containing 5% fetal bovine serum, at 37° C., 7% CO2. For electrophysiology, cells were plated at 12×10^5 cells/cm^2 on poly-L-lysine coated coverslips and transfected using the calcium phosphate method. Recordings were performed 24-36 hours after transfection.
# as §1
# Electrophysiological recording. Recordings from HEK293 and hippocampal neurons were made in the whole-cell patch clamp configuration using a PC-501A amplifier (Warner Instruments). Pulse protocols and measurements were carried out with pCLAMP and a Digidata 1322 interface (Axon Instruments). For voltage-clamp experiment, cells were held at −70 mV. Data was recorded at 20 kHz and filtered at 2 kHz. Recording pipettes with 2.5-4 MΩ resistance were filled with intracellular solution containing in mM: 10 NaCl, 135 K-gluconate, 10 HEPES, 2 MgCl2, 2 MgATP, 1 EGTA, pH 7.4.
# Illumination was provided using a xenon lamp (Sutter Instruments) with narrow band pass filters (380 BP10 for UV and 500 BP5 for visible light respectively). Excitation filters were changed using a lambda 10-2 filter changer (Sutter Instruments) controlled via pCLAMP software.
# Percent photoswitching was defined as the difference between current in UV and visible light divided by current in UV. All data shown in bar graphs are averages±standard error of the mean.
# [5] = test system: cultured hippocampal neurons; test: Live/Dead assay after PAL treatment; assay type: cell-based; conditions: 200 μM
# From the text: Live/Dead assay. After PAL treatment, hippocampal neurons were processed for the live dead assay (Molecular Probes) according to the manufacturer's instructions. Cells were counted in 4-8 fields for each treatment condition.
compound,measurement,setting,value
CC[N+](CC)(CC)CC(=O)Nc1ccc(/N=N/c2ccc(NC(=O)CN3C(=O)C=CC3=O)cc2)cc1 [MAL-AZO-QA],wavelength most effective in unblocking channels,"[1]; action spectrum, inside-out patches",380 nm
same,return of unblocked channels to the blocked state in the dark,[1]; dark,> 5 min
same,τ1 of current block in dark (biexponential),[1]; dark,0.49 min
same,τ2 of current block in dark (biexponential),[1]; dark,4.79 min
same,current unblocked by ultraviolet light,"[1]; inside-out patch, oocytes treated with 100 μM for 30 min",≤ 1 nA
same,reduction of voltage-gated Shaker current,"[1]; outside-out patch, 10 μM, over 4 min",> 60%
same,time for unblock and re-block to nearly reach steady-state,[1]; standard epifluorescence illumination,≤ 5 s
same,time to silence spontaneous action potentials,[2]; 390 nm light,≤ 3 s
same,decrease in number of action potentials elicited by a depolarizing step,"[2]; 390 nm light, n=4",79%
same,onset of restored activity in the dark after silencing,[2]; dark,> 30 s
same,effect of light on treated neurons expressing GFP without the Shaker channels,[2]; n=4,no effect
same,percent of the outward current that could be photoswitched,[3],2±5%
Cl.N[C@@H](C[C@@H](CCCC(=O)NCC(=O)Nc1ccccc1)C(=O)O)C(=O)O [tether model 3],solubility,Solubility,10 mM
same,maximal response compared with saturating glutamate,iGluR6,similar
same,EC50,"iGluR6; FURA-2-AM calcium imaging, HEK293, read-out: EC50 for activating iGluR6",180 µM
N[C@@H](CC(CCCC(=O)NCC(=O)Nc1ccc(/N=N/c2ccc(NC(=O)CN3C(=O)C=CC3=O)cc2)cc1)C(=O)O)C(=O)O (stereo in doubt) [MAG-1],solubility,Solubility,0.2 mM
same,cell death compared with controls,hippocampal neurons,no difference; also recorded: no increase in cell death
same,"light sensitivity conferred (Ca2+ increase at 380 nm, decrease at 500 nm)",iGluR6; wildtype iGluR6 (WT),not on wildtype iGluR6
same,fraction in the cis-state,[4]; 380 nm,93.0±0.6%
same,fraction in the trans-state,[4]; 500 nm,83.0±0.6%
"COc1ccc(-c2ccc(=N)n(CCCC(=O)O)n2)cc1 [Gabazine, reference compound]",basal firing rate of Purkinje cells,Purkinje neurons,~15 Hz
CC[N+](CC)(CC)CC(=O)Nc1ccc(/N=N/c2ccc(NC(=O)CCl)cc2)cc1 [CAQ],water solubility compared with AAQ,Solubility,less water-soluble
same,light-sensitivity conferred on channel,wild-type Shaker (E422),conferred light-sensitivity
same,death of neurons,[5]; 15 min,~10%
same,loss of neurons,[5]; 60 min,~15%
"O=c1[nH]c2cc([N+](=O)[O-])c([N+](=O)[O-])cc2[nH]c1=O [DNQX, 6,7-dinitroquinoxaline-2,3-[1H,4H]-dione, reference compound]",solubility,Solubility,4 mM
